The record followed here is US20260022122A1 (Checkmate Therapeutics Inc., priority 2022, published 2026).

A value given as a limit tells only on which side of the number the result lay.

In one assay the target is NamPT (Homo sapiens (Human), UniProt P43490). Put plainly: Measurement of NamPT inhibitory ability IC50 (NamPT colorimetric assay kit, Abcam ab221819). It counts as biochemical. The settings on record: NamPT recombinant protein, WST-1 absorbance at 450 nm; class key in μM. The method, then:
To test the effect of the compound prepared in each Example on the substrate decomposition rate (Vmax/min) mediated by NamPT enzyme, IC50 was calculated. In this experiment, the NamPT colorimetric assay kit (ab221819) produced by Abcam was used, and Graph prism software was used for IC50 calculation. PRPP, ATP, NMNAT1, NamPT recombinant proteins, and various concentrations of the compound of each Example (half-log step dilution from 100 μM) were added to nicotinamide to synthesize nicotinamide adenine dinucleotide (NAD) from the nicotinamide, and a total of 60 μL of the reaction solution was reacted at room temperature for 1 hour. WST-1 formazan converted by NAD generated by adding WST-1 was measured. The result of the reaction was obtained by the following formula by measuring absorbance using EnVision2105 (PerkinElmer) at 450 nm for 60 minutes at 2-minute intervals.
In Mathematical Formula 1, T1 and T2 are arbitrary times, and A1 and A2 represent the absorbance measured at T1 and T2 at 450 nm, respectively.
The results of measuring the NamPT inhibition activity of the compound of each Example obtained through the above experiment are shown in Table 1 in the unit of IC50 (nM), and the result values are expressed as follows.
(Formazan colour is commonly taken as a measure of viable cells.)

Assay [1] concerns NAPRT negative lung cancer cell lines (H322, H661, H1155). In words: Proliferation inhibition on NAPRT negative lung cancer cell lines (CellTiter-Glo). It counts as cell-based. The settings on record: 72 hours. The method, then: (§1) A compound showing a low IC50 value was selected from the compounds of the above Examples and treated an NAPRT positive or negative lung cancer cell line with various concentrations, and then the change in cell viability for each cell line was measured. The results are presented in a graph (a few materials known as NamPT inhibitors were used as controls). A total of 9 cancer cells lines (three NAPRT negative cell lines: H322, H661, and H1155; and six NAPRT positive cell lines: H1993, H2122, H2030, H1975, H1299, and HBEC30) were used. 5% fetal bovine serum (Gibco, US) and 1% penicillin/streptomycin (Gibco) were added to a medium, and the cells were cultured in a 37° C. constant temperature incubator containing 5% CO2. For compound treatment, each type of cells were seeded at 3×10^3 cells/well in a 96-well plate (Corning) and then incubated in a 37° C. constant temperature incubator containing 5% CO2 for 18 hours. […] Afterwards, the cells were cultured in an incubator containing 5% CO2 at 37° C. for 72 hours. To confirm the effect of inhibiting the proliferation of cancer cells, a CellTiter-Glo Luminescent Cell Viability Assay (Promega) was used. After treating the cells with 10 μL of CellTiter-Glo luciferase reagent and leaving them for 15 minutes at room temperature, the luminescence of each well was measured using EnVision2105 (PerkinElmer). The change in cell viability by the compound diluted at the concentration of each step was converted into a relative % value for the amount of luminescence shown by DMSO treatment. EC50 is expressed as the concentration of each compound that induces 50% of the maximum luminescence level.
(§2) The results of measuring the proliferation inhibition ability of the compound of each Example on nine types of lung cancer cell lines, obtained through the above experiment, are shown in Table 2 in the unit of EC50 (μM). The resulting values are expressed as follows.

For assay [2], the system named is NAPRT positive cell lines (H1993, H2122, H2030, H1975, H1299, HBEC30). Put plainly: Proliferation inhibition on NAPRT positive lung cancer cell lines (CellTiter-Glo). It counts as cell-based. To be noted: 72 hours. The method, then:
as §1, §2

In assay [3] the test system is NAPRT-negative gastric cancer cell line HGC27. In words: NAPRT-negative cancer cell xenograft model (% tumor growth inhibition). It counts as in vivo. To be noted: 50 mg/kg, orally once a day from day 1 to day 21, HGC27 xenograft in BALB/c nude mice. The source says: Based on the effect of inhibiting proliferation limited to NAPRT-negative cancer cell lines according to the experiment of the proliferation inhibitory effect (EC50) on NAPRT-negative cancer cell lines, the pharmacological effect in a xenograft model using NAPRT-negative cancer cell lines was verified. Five-week-old female BALB/c nude mice were purchased and used in the experiment after acclimation for one week. The cancer cells used in the experiment were a NAPRT-negative gastric cancer cell line HGC27, and cultured in […] medium (Gibco) to which 5% Fetal Bovine Serum (Gibco, US) and 1% penicillin/streptomycin (Gibco) were added. HGC27 was suspended in PBS (Welgene) and transplanted to have 5×10^6 cells into each mouse. After adding Matrigel in the same value, tumors were induced by subcutaneous injection into the right flank using a 1 mL syringe. After 3 weeks of breeding, when the average tumor size was 100 to 150 mm^3, mice were randomly divided into groups of 7 and administered each compound. The compound was prepared in an excipient (0.5% DMSO/2% Tween 80/20% PEG 400/20% b-HPCD in 77.5% DW) as an agent for oral administration, and administered orally once a day from day 1 to day 21 to the mouse model in which a tumor was generated. From day 1 to day 21, the body weight was measured once daily, and the tumor size was measured three times a week. The tumor size was measured using a caliper and calculated using the following formula.
In Mathematical Formula 2, W is a length, and d is a width.
On day 21, all animals were euthanized, blood samples were collected, and tumors were removed. To evaluate blood toxicity, blood was collected from an EDTA-containing blood collection tube, and subjected to a general blood test (complete blood count, CBC) and a blood biochemical test. Isolated tumors were weighed after photographing and a portion was used to measure NAD to verify the on-target efficacy of the compound. To measure NAD, a NAD/NADH Quantitation Colorimetric Kit (K337) produced by BioVision was used.
The pharmacological effect of each compound in the NAPRT-negative cancer cell xenograft models, obtained in this experiment, is shown in Table 3 in the unit of % TGI (tumor growth inhibition).

Chain of NamPT (P43490 whole entry): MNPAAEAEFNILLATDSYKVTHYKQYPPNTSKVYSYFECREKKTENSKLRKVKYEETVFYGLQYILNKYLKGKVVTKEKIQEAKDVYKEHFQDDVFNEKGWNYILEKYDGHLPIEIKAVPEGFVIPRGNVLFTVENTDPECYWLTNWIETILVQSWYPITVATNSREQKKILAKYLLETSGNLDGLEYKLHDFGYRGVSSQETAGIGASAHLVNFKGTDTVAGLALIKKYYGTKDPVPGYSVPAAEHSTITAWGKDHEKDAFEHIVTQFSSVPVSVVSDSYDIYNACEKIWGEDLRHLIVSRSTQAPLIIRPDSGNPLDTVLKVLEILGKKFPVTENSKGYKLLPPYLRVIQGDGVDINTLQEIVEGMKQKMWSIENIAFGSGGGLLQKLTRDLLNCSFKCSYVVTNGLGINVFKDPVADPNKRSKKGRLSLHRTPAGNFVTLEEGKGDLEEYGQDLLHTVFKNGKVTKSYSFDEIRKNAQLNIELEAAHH

By IC50 is commonly meant the concentration that inhibits the measured activity by half. Usually EC50 stands for the midpoint of the concentration-response curve. Consider `O=C(NCc1ccc(-c2nc3cc(C(F)(F)F)ccc3o2)cc1)c1cnc2nccn2c1` [Example 13, N-[[4-[5-(trifluoromethyl)-1,3-benzoxazol-2-yl]phenyl]methyl]imidazo[1,2-a]pyrimidin-6-carboxamide], for which the IC50 on NamPT is below 0.05 µM. Moreover, the results for the EC50 in assay [1] and in assay [2] were below 0.05 µM and above 101 µM, respectively. In addition, in assay [3], the “% TGI (Tumor Growth inhibition)” value is on record as 63%.
Turning to `Cc1cc2nc(-c3ccc(CNC(=O)c4cnc5nccn5c4)cc3)oc2cc1F` [Example 11, N-[[4-(6-fluoro-5-methyl-1,3-benzoxazol-2-yl)phenyl]methyl]imidazo[1,2-a]pyrimidin-6-carboxamide], the IC50 on NamPT was below 0.05 µM. Moreover, the “% TGI (Tumor Growth inhibition)” value in assay [3] is 82%.
On to `O=C(NCc1ccc(-c2nc3ccc(Cl)cc3o2)cc1)c1cnc2nccn2c1` [Example 4, N-[[4-(6-chloro-1,3-benzoxazol-2-yl)phenyl]methyl]imidazo[1,2-a]pyrimidin-6-carboxamide], for which the IC50 on NamPT is below 0.05 µM. The EC50 is below 0.05 µM in assay [1] and above 101 µM in assay [2]. Also, the “% TGI (Tumor Growth inhibition)” value in assay [3] is listed as 80%.
Turning to `Cc1cc2nc(-c3ccc(CNC(=O)c4cnc5nccn5c4)cc3)oc2cc1Cl` [Example 10, N-[[4-(6-chloro-5-methyl-1,3-benzoxazol-2-yl)phenyl]methyl]imidazo[1,2-a]pyrimidin-6-carboxamide], at NamPT, the IC50 was below 0.05 µM. In addition, the values for the EC50 in assay [1] and in assay [2] were below 0.05 µM and above 101 µM, respectively. The “% TGI (Tumor Growth inhibition)” value in assay [3] turned out to be 61%.
On to `O=C(NCc1ccc(-c2nc3ccc(C(F)(F)F)cc3o2)cc1)c1cnc2nccn2c1` [Example 19, N-[[4-[6-(trifluoromethyl)-1,3-benzoxazol-2-yl]phenyl]methyl]imidazo[1,2-a]pyrimidin-6-carboxamide], for which the IC50 on NamPT was below 0.05 µM. The EC50 is 0.051 to 0.1 µM in assay [1] and above 101 µM in assay [2].
In the same order, the values of `Cc1ccc2oc(-c3ccc(CNC(=O)c4cnc5nccn5c4)cc3)nc2c1` [Example 6, N-[[4-(5-methyl-1,3-benzoxazol-2-yl)phenyl]methyl]imidazo[1,2-a]pyrimidin-6-carboxamide] are below 0.05 µM, below 0.05 µM and above 101 µM.
In the case of `O=C(NCc1ccc(-c2nc3ccc(F)cc3o2)cc1)c1cnc2nccn2c1` [Example 17, N-[[4-(6-fluoro-1,3-benzoxazol-2-yl)phenyl]methyl]imidazo[1,2-a]pyrimidin-6-carboxamide], on NamPT, the IC50 lay within 0.051 to 0.1 µM. In addition, the EC50 in assay [1] is 0.051 to 0.1 µM; in assay [2], above 101 µM.
